Laboratory results as given in US20220411381A1, “PYRIMIDINEDIONE DERIVATIVES” (Bayer Aktiengesellschaft, priority 2019, published 2022).
Like-named read-outs stand apart in the source and are kept apart here.

Tests used:
[1] = molecular target: T1, recombinant human BCAT1 enzyme (Homo sapiens, UniProt P54687); assay: In vitro assay 1a: BCAT1 biochemical assay (coupled LeuDH/NADH fluorescence readout)
T1 construct: purchased ATGen (South Korea) ATGP1479
T1 sequence (P54687 1-386): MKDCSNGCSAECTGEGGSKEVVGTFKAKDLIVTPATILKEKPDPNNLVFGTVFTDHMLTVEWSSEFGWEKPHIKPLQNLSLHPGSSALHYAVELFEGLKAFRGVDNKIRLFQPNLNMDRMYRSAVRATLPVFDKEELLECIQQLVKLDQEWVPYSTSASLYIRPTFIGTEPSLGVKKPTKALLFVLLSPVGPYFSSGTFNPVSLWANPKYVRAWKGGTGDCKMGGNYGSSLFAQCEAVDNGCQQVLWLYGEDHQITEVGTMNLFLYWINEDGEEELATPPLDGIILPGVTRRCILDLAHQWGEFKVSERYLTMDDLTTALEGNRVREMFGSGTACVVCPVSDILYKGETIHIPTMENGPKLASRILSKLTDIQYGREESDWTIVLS
Procedure: (§1) In Vitro Assay 1a and 1b: BCAT1 and BCAT2 Biochemical Assay
(§2) BOAT (Branched chain amino acid transferase) catalyzes transamination of the branched chain amino acid leucine to α-ketoisocaproate (KIC). The BOAT enzymatic reaction was measured in a coupled readout with leucine dehydrogenase (LeuDH) which catalyzes the Nicotinamide adenine dinucleotide (NADH) dependent reduction of KIC to leucine. NADH consumption is measured by fluorescent readout.
(§3) The biochemical reactions were performed at 32° C. in 384-well plates using a reaction volume of 51 μl and the following assay buffer conditions: 50 mM HEPES (2-[4-(2-hydroxyethyl)piperazin-1-yl]ethanesulfonic acid) pH 8.0, 50 mM aqueous solution of ammonium sulfate, 1 mM ethylenediaminetetraacetic acid, 2 mM dithiothreitol, 0.01% bovine serum albumine, 0.005% Brij 35 detergent, 0.5 μM PLP (pyridoxalphosphate), 10 μM NADH, and 50 μM α-ketoglutarate), and 100 μM leucine. […] Test compounds were used in a concentration range between 0.005 and 30 μM. The final DMSO concentration was 2%.
(§4) The reaction was initiated by addition of substrates (Leucine, α-KG, NADH).

MDA-MB231 cells = assay: In vitro assay 2: BCAT cellular assay, leucine in medium of MDA-MB231 cells; type: cell-based; conditions: 24 hours incubation, leucine level in medium (LeuDH/diaphorase/resazurin readout), read-out: MDAMB-231 IC50
Procedure: (§5) In Vitro Assay 2: BCAT Cellular Assay
(§6) Levels of leucine were measured in medium of different tumor cell lines. The enzyme BOAT (Branched chain amino acid transferase) catalyzes the consumption of leucine.
(§7) Cells (U87-MG and MDA-MB231 from ATCC) were grown in Dulbecco's Modified Eagle Medium (DMEM) containing 10% fetal calf serum. They were harvested by trypsin and seeded into 96-well plates. Cells were incubated overnight at 37° C. in an atmosphere containing 5% carbon dioxide. The next day test compounds were added to each cell well. The final concentration of dimethylsulfoxide (DMSO) was 0.1% and DMSO controls were included. The plates were then placed in an incubator for 24 hours.
(§8) Leucine was measured in an enzymatic readout with leucine dehydrogenase (LeuDH) and diaphorase. Medium is deproteinized with perchloric acid. 30 μl of 1 M aqueous perchloric acid was added to each well and the plates were centrifuged.

[2] = molecular target: T2, recombinant human BCAT2 enzyme (Homo sapiens, UniProt O15382); assay: In vitro assay 1b: BCAT2 biochemical assay (coupled LeuDH/NADH fluorescence readout); on BCAT2 IC50 [M]: recombinant human BCAT2 0.75 nM
T2 construct: purchased ATGen (South Korea) ATGP1523
T2 sequence (O15382 28-392): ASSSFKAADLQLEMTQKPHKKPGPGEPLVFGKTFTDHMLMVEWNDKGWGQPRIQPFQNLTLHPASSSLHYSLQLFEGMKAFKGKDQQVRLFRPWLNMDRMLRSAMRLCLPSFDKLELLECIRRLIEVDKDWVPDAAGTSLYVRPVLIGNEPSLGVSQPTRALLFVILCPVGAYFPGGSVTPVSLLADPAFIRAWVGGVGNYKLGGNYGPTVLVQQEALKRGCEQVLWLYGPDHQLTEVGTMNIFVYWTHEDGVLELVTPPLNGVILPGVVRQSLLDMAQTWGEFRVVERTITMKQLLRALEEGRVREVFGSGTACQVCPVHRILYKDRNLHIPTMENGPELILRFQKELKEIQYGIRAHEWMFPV
Procedure: as §1, §2, §3, §4

U87-MG cells = assay: In vitro assay 2: BCAT cellular assay, leucine in medium of U87-MG cells; type: cell-based; conditions: Homo sapiens, U-87 MG, 24 h, 24 hours incubation, leucine level in medium (LeuDH/diaphorase/resazurin readout)
Procedure: as §5, §6, §7, §8

[3] = recombinant human BCAT1 […], 32° C., 100 μM leucine, 50 μM α-ketoglutarate, NADH fluorescence over 90 min, read-out: BCAT1 IC50
[4] = recombinant human BCAT2 […], 32° C., 100 μM leucine, 50 μM α-ketoglutarate, NADH fluorescence over 90 min, read-out: BCAT2 IC50

SMILES: COc1cc(C#N)c(Oc2ccccc2C)cc1-n1c(=O)cc(C(F)(F)F)[nH]c1=O (racemic) [Example 4, 4-[2,6-Dioxo-4-(trifluoromethyl)-3,6-dihydropyrimidin-1(2H)-yl]-5-methoxy-2-(2-methylphenoxy)benzonitrile (rac)]
- IC50 ([1]; BCAT1 IC50 [M]): 1.62e-07 M
- IC50 (MDA-MB231 cells; Homo sapiens, MDA-MB-231, 24 h): > 30 µM

SMILES: Cc1ccccc1Oc1cc(-n2c(=O)cc(C(F)(F)F)[nH]c2=O)c(C)cc1C#N (racemic) [Example 7, 4-[2,6-Dioxo-4-(trifluoromethyl)-3,6-dihydropyrimidin-1(2H)-yl]-5-methyl-2-(2-methylphenoxy)benzonitrile (rac)]
- IC50 ([1]; BCAT1 IC50 [M]): 2.87e-07 M
- IC50 ([2]; BCAT2 IC50 [M]): 1.8e-06 M
- IC50 (MDA-MB231 cells): > 30 µM
- IC50 (MDA-MB231 cells; Homo sapiens, MDA-MB-231, 24 h): 30 µM

SMILES: COc1cc(C#N)c(Oc2ccccc2C)cc1-n1c(=O)cc(Br)[nH]c1=O (racemic) [Example 19, 4-[4-Bromo-2,6-dioxo-3,6-dihydropyrimidin-1(2H)-yl]-5-methoxy-2-(2-methylphenoxy)benzonitrile (rac)]
- IC50 [1, 3]: 2e-07 M
- IC50 [2, 4]: 3.5e-06 M
- IC50 (MDA-MB231 cells; Homo sapiens, MDA-MB-231, 24 h): > 30 µM

SMILES: COc1cc(C#N)c(Oc2ccccc2C)cc1-n1c(=O)cc(C2CC2)[nH]c1=O (racemic) [Example 23, 4-(4-Cyclopropyl-2,6-dioxo-3,6-dihydropyrimidin-1(2H)-yl)-5-methoxy-2-(2-methylphenoxy)benzonitrile (rac)]
- IC50 [1, 3]: 1.8e-07 M
- IC50 (MDA-MB231 cells): > 30 µM
- IC50 (MDA-MB231 cells; Homo sapiens, MDA-MB-231, 24 h): 30 µM

SMILES: COc1cc(Cl)c(Oc2ccccc2C)cc1-n1c(=O)cc(C(F)(F)F)[nH]c1=O (racemic) [Example 27, 3-[4-Chloro-2-methoxy-5-(2-methylphenoxy)phenyl]-6-(trifluoromethyl)pyrimidine-2,4(1H,3H)-dione (rac)]
- IC50 [1, 3]: 4.38e-07 M
- IC50 [2, 4]: 4.33e-06 M
- IC50 (MDA-MB231 cells): 20 µM
- IC50 (MDA-MB231 cells; Homo sapiens, MDA-MB-231, 24 h): > 30 µM

SMILES: COc1cc(C#N)c(Oc2ccccc2C)cc1-n1c(=O)cc(-c2ccccc2)[nH]c1=O (racemic) [Example 42, 4-(2,6-Dioxo-4-phenyl-3,6-dihydropyrimidin-1(2H)-yl)-5-methoxy-2-(2-methylphenoxy)benzonitrile (rac)]
- IC50 [1, 3]: 7.25e-07 M
- IC50 [2, 4]: 1e-05 M
- IC50 (MDA-MB231 cells; Homo sapiens, MDA-MB-231, 24 h): > 30 µM

SMILES: COc1cc(C#N)c(Oc2ccccc2C)cc1-n1c(=O)cc(-c2ccc(C(F)(F)F)cc2)[nH]c1=O (racemic) [Example 69, 4-{2,6-Dioxo-4-[4-(trifluoromethyl)phenyl]-3,6-dihydropyrimidin-1(2H)-yl}-5-methoxy-2-(2-methylphenoxy)benzonitrile (rac)]
- IC50 [1, 3]: 4.5e-06 M
- IC50 (U87-MG cells): > 30 µM

SMILES: COc1cc(C#N)c(Oc2ccccc2C)cc1-n1c(=O)cc(S(=O)(=O)c2ccccc2)[nH]c1=O (racemic) [Example 76, 4-[4-(Benzenesulfonyl)-2,6-dioxo-3,6-dihydropyrimidin-1(2H)-yl]-5-methoxy-2-(2-methylphenoxy)benzonitrile (rac)]
- IC50 [2, 4]: 4.52e-07 M
- IC50 (MDA-MB231 cells): 20 µM
- IC50 (MDA-MB231 cells; Homo sapiens, MDA-MB-231, 24 h): > 30 µM

SMILES: COc1cc(C#N)c(Oc2ccccc2C)cc1-n1c(=O)cc(S(C)(=O)=O)[nH]c1=O (racemic) [Example 79, 4-[4-(Methanesulfonyl)-2,6-dioxo-3,6-dihydropyrimidin-1(2H)-yl]-5-methoxy-2-(2-methylphenoxy)benzonitrile (rac)]
- IC50 [1, 3]: 7e-07 M
- IC50 [2, 4]: 4e-06 M
- IC50 (MDA-MB231 cells; Homo sapiens, MDA-MB-231, 24 h): > 30 µM

SMILES: COc1cc(C#N)c(Oc2ccccc2C)cc1-n1c(=O)cc(C(F)(F)F)[nH]c1=O (single isomer, unassigned) [Example 6, 4-[2,6-Dioxo-4-(trifluoromethyl)-3,6-dihydropyrimidin-1 (2H)-yl]-5-methoxy-2-(2-methylphenoxy)benzonitrile (atrop 2)]
- IC50 ([1]; BCAT1 IC50 [M]): 6.25e-07 M
- IC50 (MDA-MB231 cells): > 30 µM

SMILES: COc1cc(C#N)c(Oc2ccccc2C)cc1-n1c(=O)cc(Br)[nH]c1=O (single isomer, unassigned) [Example 20, 4-[4-Bromo-2,6-dioxo-3,6-dihydropyrimidin-1(2H)-yl]-5-methoxy-2-(2-methylphenoxy)benzonitrile (atrop 1)]
- IC50 [1, 3]: 2.35e-06 M
- IC50 [2, 4]: 2.3e-05 M
- IC50 (MDA-MB231 cells): 27 µM

SMILES: Cc1ccccc1Oc1cc(-n2c(=O)cc(C(F)(F)F)[nH]c2=O)cnc1C#N [Example 47, 5-[2,6-Dioxo-4-(trifluoromethyl)-3,6-dihydropyrimidin-1(2H)-yl]-3-(2-methylphenoxy)pyridine-2-carbonitrile]
- IC50 [1, 3]: 6.5e-07 M
- IC50 [2, 4]: 3.2e-06 M
- IC50 (MDA-MB231 cells; Homo sapiens, MDA-MB-231, 24 h): > 30 µM

SMILES: Cc1cccc(C)c1Oc1cc(-n2c(=O)cc(C(F)(F)F)[nH]c2=O)ccc1C#N [Example 48, 2-(2,6-Dimethylphenoxy)-4-[2,6-dioxo-4-(trifluoromethyl)-3,6-dihydropyrimidin-1 (2H)-yl]benzonitrile]
- IC50 [1, 3]: 6.97e-07 M
- IC50 [2, 4]: 4.15e-06 M
- IC50 (MDA-MB231 cells; Homo sapiens, MDA-MB-231, 24 h): 25 µM

SMILES: Cc1ccccc1Oc1cc(-n2c(=O)cc(-c3ccccc3)[nH]c2=O)c(F)cc1C#N [Example 49, 4-(2,6-Dioxo-4-phenyl-3,6-dihydropyrimidin-1(2H)-yl)-5-fluoro-2-(2-methylphenoxy)benzonitrile]
- IC50 [1, 3]: 6.98e-07 M
- IC50 [2, 4]: 4.93e-06 M
- IC50 (MDA-MB231 cells; Homo sapiens, MDA-MB-231, 24 h): > 30 µM

SMILES: N#Cc1cc(F)c(-n2c(=O)cc(C(F)(F)F)[nH]c2=O)cc1Oc1c(F)cccc1F [Example 63, 2-(2,6-Difluorophenoxy)-4-[2,6-dioxo-4-(trifluoromethyl)-3,6-dihydropyrimidin-1 (2H)-yl]-5-fluorobenzonitrile]
- IC50 (MDA-MB231 cells; Homo sapiens, MDA-MB-231, 24 h): > 30 µM

SMILES: Cc1cccc(N)c1Oc1cc(-n2c(=O)cc(C(F)(F)F)[nH]c2=O)c(F)cc1C#N [Example 65, 2-(2-Amino-6-methylphenoxy)-4-[2,6-dioxo-4-(trifluoromethyl)-3,6-dihydropyrimidin-1(2H)-yl]-5-fluorobenzonitrile]
- IC50 [1, 3]: 5e-07 M
- IC50 [2, 4]: 5.5e-06 M
- IC50 (MDA-MB231 cells; Homo sapiens, MDA-MB-231, 24 h): > 30 µM

SMILES: Cc1ccc(Oc2cc(-n3c(=O)cc(C(F)(F)F)[nH]c3=O)c(F)cc2C#N)c(C)c1 [Example 66, 2-(2,4-Dimethylphenoxy)-4-[2,6-dioxo-4-(trifluoromethyl)-3,6-dihydropyrimidin-1(2H)-yl]-5-fluorobenzonitrile]
- IC50 [1, 3]: 6.7e-06 M
- IC50 [2, 4]: 4.9e-05 M

SMILES: Cc1ccccc1Oc1cc(-n2c(=O)cc(C3CC3)[nH]c2=O)c(F)cc1C#N [Example 72, 4-(4-Cyclopropyl-2,6-dioxo-3,6-dihydropyrimidin-1(2H)-yl)-5-fluoro-2-(2-methylphenoxy)benzonitrile]
- IC50 [1, 3]: 2e-06 M
- IC50 [2, 4]: 2.5e-05 M
- IC50 (MDA-MB231 cells; Homo sapiens, MDA-MB-231, 24 h): > 30 µM

SMILES: Cc1ccccc1Oc1cc(-n2c(=O)cc(S(=O)(=O)c3ccccc3)[nH]c2=O)c(F)cc1C#N [Example 74, 4-[4-(Benzenesulfonyl)-2,6-dioxo-3,6-dihydropyrimidin-1(2H)-yl]-5-fluoro-2-(2-methylphenoxy)benzonitrile]
- IC50 (MDA-MB231 cells): 30 µM
- IC50 (MDA-MB231 cells; Homo sapiens, MDA-MB-231, 24 h): > 30 µM

SMILES: Cc1ccccc1Oc1cc(-n2c(=O)cc(S(C)(=O)=O)[nH]c2=O)c(F)cc1C#N [Example 75, 5-Fluoro-4-[4-(methanesulfonyl)-2,6-dioxo-3,6-dihydropyrimidin-1(2H)-yl]-2-(2-methylphenoxy)benzonitrile]
- IC50 [1, 3]: 2.7e-06 M
- IC50 [2, 4]: 1.6e-05 M
